Assay results as given in patent US11591363B2, “Crystalline forms of beta-sitosterol” (CENTER FOR I[…] IN CRYSTAL ENGINEERING, S.L., priority 2017, dated 2023).
In brackets after ≈: the same amount, converted by molar mass. Like-named read-outs stand apart in the source and are kept apart here.

Key:
[1] = test system: Plasma triglyceride levels; test: Activity test: plasma triglycerides after oral load of lard; assay type: in vivo, Golden Syrian male Hamsters; settings: for reduction of the plasmatic triglyceride concentration: T5 (5 h) vs T0
[2] = Particle size test by laser diffraction; assay type: physicochemical
Text: This test provides the particle size of the co-crystals of the present invention in comparison with the comparaitive Standard sample of beta-Sitosterol from the Ph. Eu. Reference Standard, ref. (Y0001615)
7.1. Tested Samples • Comparative sample A: comparaitive Standard sample of beta-Sitosterol from the Ph. Eu. Reference Standard, ref. (Y0001615) • Sample A: hydrate crystal of beta-sitosterol having 1.25 molecules of water of the present invention • Sample B: cocrystal of beta-sitosterol and gallic acid Form 5 of the present invention • Sample C: cocrystal of beta-sitosterol and propionic acid Form 2 of the present invention
The particle size was performed by laser diffraction. For this purpose, a Beckman-Coulter model. LS13320 laser diffractometer (Fullerton, Calif., USA) was equipped with a Micro. Liquid Module (MLM) wet dispersion modul, an an optic model (Fraunhofer. Rdf, PIDS). The measurement range is 0.4-2000 μm.

[3] = Solubility test, shake-flask in FaSSIF-V2; assay type: physicochemical; settings: for solubility at 24 h: thermodynamic from solid, read-out: Log S (logarithm of S in mol/L) (converted); for solubility, comparison between tested samples: FaSSIF-V2, pH 6.5, 25° C.
Method: This test is focused on evaluating the solubility in Fasted State Simulated Intestinal Fluid (FaSSIF-V2).
5.1. Samples • Comparative sample A (reference): Standard sample of beta-Sitosterol from the Ph. Eu. Reference Standard, ref. (Y0001615) • Sample A: hydrate crystal of beta-sitosterol having 1.25 molecules of water of the present invention • Sample B: cocrystal of beta-sitosterol and gallic acid Form 5 of the present invention
Solubility is determined in FaSSIF-V2 media, prepared as stated by Biorelevant.com using maleic acid buffer (pH=6.5).
All experiments are done under temperature control at 25±1° C. The weight of tested samples expressed in mg, and FaSSIF final volume expressed in mL are as defined in Table below:
Shaking time: 24 h in a rotational stirrer. After 4-5 h of shaking, pH is measured and readjusted to the initial value (6.5) in case it is needed. • Equilibration time: 24 h • Final pH measurement • Phase separation: filtration through a hydrophilic filter (PTFE membrane, 0.45 μm porous size, 4 mm diameter, Millex-LH, Millipore). Before the filtration, the filter was conditioned with sample solution for 1 h. After that time, filtration started rejecting the first drops of sample. • Solid form characterization: solid obtained after filtration is analysed by XRPD to know the exact solid form obtained after the shake-flask procedure. In case of cocrystals, XRPD analysis confirms that experiments are done under eutectic point conditions. • Liquid phase is used for API and coformer quantification.
5.3.2. HPLC Quantification • Instrument: Shimadzu HPLC, with diode array detector (SPD-M10AVPI), two pumps (LC-10ADVP), autoinjector (SIL-10ADVP) and column oven (CTO-10ASVP). • Column:
For comparative sample A and sample A quantification: Phenomenex Kinetex C18, 100×4.6 mm, 2.6 μm. For sample B quantification: Phenomenex Luna C18, 150×4.6 mm, 5 μm. • Conditions:
For comparative sample A and sample A quantification: Mobile phase composed of 80% Methanol-20% Acetonitrile. Isocratic conditions. Flow: 0.8 mL/min. Injection volume: 20 μL.
For sample B quantification: Mobile phase composed of 20 mM formic acid at pH=3 (A) and methanol (B). Gradient conditions: 0-3 min, 5% B; 8 min, 10% B; 15 min, 100% B; 17 min, 5% B; 25 min, 5% B. Flow: 1 mL/min. Injection volume: 10 μL.
Quantification wavelength: 210 nm for comparative sample A and 280 nm for sample A.
The amounts of comparative sample A, sample A and sample B in the filtered solutions coming from Shake-Flask (SF) experiments have been quantified according to the described methodology.
Solubility of the samples A and B has been calculated through the equilibrium concentrations in the eutectic point as described in “S. J. Bethune, N. Huang, A. Jayasankar, N. Rodriguez-Hornedo, Crystal Growth and Design 9, 2009, 3976-3988”, taking into account the stoichiometry of each sample.

[4] = test system: Plasma cholesterol levels; test: Activity test: plasma cholesterol after oral load of lard; assay type: in vivo, Golden Syrian male Hamsters; settings: measured at 5 h (T5) vs T0, oral load of lard 2.5 g/kg BW supplemented with 0.513 g/kg BW
[5] = test system: circulating β-sitosterol levels; test: Activity test: sitosterolemia (plasma beta-sitosterol, GC-FID) after oral load of lard; assay type: in vivo, Golden Syrian male Hamsters; settings: for decrease in circulating levels of β-sitosterol: 5 h post-treatment (T5) with respect to T0 value, oral load of lard 2.5 g/kg BW supplemented with 0.513 g/kg BW
[6] = Bioavailability assessment: plasma beta-sitosterol after 21 days high-fat diet
[7] = FaSSIF-V2, pH 6.5, 25±1° C., shake-flask 24 h, value (SD)

## CC[C@H](CC[C@@H](C)[C@H]1CC[C@H]2[C@@H]3CC=C4C[C@@H](O)CC[C@]4(C)[C@H]3CC[C@]12C)C(C)C [hydrate crystal form of beta-sitosterol, beta-sitosterol]
[1]; oral load of lard 2.5 g/kg BW supplemented with 0.513 g/kg BW, listed as test sample D
  reduction of the plasmatic triglyceride concentration: 2%
[2]; listed as Sample A
  D10: 4.145 μm
  D50: 16.39 μm
  D90: 34.63 μm
  D(3, 2) surface weighted mean diameter: 8.558 μm
  Mean particle size: 18.12 μm
[3]; 25 °C, FaSSIF-V2, pH 6.5, 25±1° C., calculated through the equilibrium concentrations in the eutectic point, taking into account stoichiometry
  solubility at 24 h: 5.01 µM
[3]
  solubility, comparison between tested samples: more soluble than the commercially available beta-sitosterol
[3]; FaSSIF-V2, pH 6.5, 25±1° C., shake-flask 24 h, value (SD), listed as Sample A
  [API] concentration of beta-sitosterol in the solutions coming from SF experiments: 2.5 (1) mg/mL
[4]; listed as test sample D
  decrease of plasmatic cholesterol levels: 29%
[5]; listed as test sample D
  decrease in circulating levels of β-sitosterol: 34%

## CC[C@H](CC[C@@H](C)[C@H]1CC[C@H]2[C@@H]3CC=C4C[C@@H](O)CC[C@]4(C)[C@H]3CC[C@]12C)C(C)C [cocrystal Form 2, cocrystal of beta-sitosterol and propionic acid]
[1]; 5 h post-oral fat load, 0.513 g/kg BW
  plasma triglyceride concentrations at T5, comparison between groups (FIG. 15): lower levels at T5 in comparison with both Compound A and compound B
[1]; oral load of lard 2.5 g/kg BW supplemented with 0.513 g/kg BW, listed as test sample C
  reduction of the plasmatic triglyceride concentration: 20%
[2]; listed as Sample C
  D10: 6.671 μm
  D50: 28.01 μm
  D90: 47.60 μm
  D(3, 2) surface weighted mean diameter: 13.19 μm
  Mean particle size: 27.77 μm
[4]; listed as Test sample C
  decrease of plasmatic cholesterol levels: 21%
[6]; 0.264 g beta-sitosterol/kg BW, control set to 1, listed as test sample C
  Fold-change (FC) of increase of circulating beta-sitosterol with respect to controls (comparative group A): 6.4
[6]; same dose 0.264 g beta-sitosterol/kg BW
  FC increment of circulating beta-sitosterol in relation to reference sample B1 value: 2.7
[5]; listed as test sample C
  decrease in circulating levels of β-sitosterol: 14%

## CC[C@H](CC[C@@H](C)[C@H]1CC[C@H]2[C@@H]3CC=C4C[C@@H](O)CC[C@]4(C)[C@H]3CC[C@]12C)C(C)C [reference sample B2, beta-sitosterol]
[6]; 0.528 g/kg BW, control set to 1
  Fold-change (FC) of increase of circulating beta-sitosterol with respect to controls (comparative group A): 5.3

## cocrystal of beta-sitosterol and benzyl alcohol [cocrystal Form 4]
[1]; oral load of lard 2.5 g/kg BW supplemented with 0.513 g/kg BW
  reduction of the plasmatic triglyceride concentration: 7%
[4]
  decrease of plasmatic cholesterol levels: 31%
[5]
  decrease in circulating levels of β-sitosterol: 12%

## cocrystal of beta-sitosterol and gallic acid [cocrystal Form 5]
[2]
  D10: 3.102 μm
  D50: 10.24 μm
  D90: 23.21 μm
  D(3, 2) surface weighted mean diameter: 6.009 μm
  Mean particle size: 12.05 μm
[3]
  solubility, comparison between tested samples: more soluble than the remaining tested samples
[3]; [7]
  [API] concentration of beta-sitosterol in the solutions coming from SF experiments: 3.0 (1.5) mg/mL
[3]; FaSSIF-V2, pH 6.5, 25±1° C., calculated through the equilibrium concentrations in the eutectic point, taking into account stoichiometry
  Log S (logarithm of S in mol/L): −4.7 (0.1) mol/L
[6]; equivalent to 0.158 g of beta-sitosterol/kg BW, control set to 1
  Fold-change (FC) of increase of circulating beta-sitosterol with respect to controls (comparative group A): 4.7
[6]; equivalent to 0.330 g of beta-sitosterol/kg BW, control set to 1
  Fold-change (FC) of increase of circulating beta-sitosterol with respect to controls (comparative group A): 7.9

## CC[C@H](CC[C@@H](C)[C@H]1CC[C@H]2[C@@H]3CC=C4C[C@@H](O)CC[C@]4(C)[C@H]3CC[C@]12C)C(C)C [reference sample B1, beta-sitosterol]
[6]; 0.264 g beta-sitosterol/kg BW, control set to 1
  Fold-change (FC) of increase of circulating beta-sitosterol with respect to controls (comparative group A): 2.4

## CC[C@H](CC[C@@H](C)[C@H]1CC[C@H]2[C@@H]3CC=C4C[C@@H](O)CC[C@]4(C)[C@H]3CC[C@]12C)C(C)C [Comparative sample A, beta-sitosterol]
[2]
  D10: 44.62 μm
  D50: 108.0 μm
  D90: 178.8 μm
  D(3, 2) surface weighted mean diameter: 30.19 μm
  Mean particle size: 109.9 μm
[3]; FaSSIF-V2, 25 °C, pH 6.5, fassif, FaSSIF-V2, pH 6.5, 25±1° C., shake-flask 24 h, value (SD)
  solubility at 24 h: 0.851 µM (≈ 0.353 µg/mL)
[3]; [7]
  [API] concentration of beta-sitosterol in the solutions coming from SF experiments: 0.36 (0.06) mg/mL

## CC[C@H](CC[C@@H](C)[C@H]1CC[C@H]2[C@@H]3CC=C4C[C@@H](O)CC[C@]4(C)[C@H]3CC[C@]12C)C(C)C [comparative sample B, beta-sitosterol]
[1]; T5 vs T0, oral load of lard 2.5 g/kg BW supplemented with 0.513 g/kg BW
  increase in triglyceridemia at 5 h (T5): 39%
[4]
  decrease of plasmatic cholesterol levels: 25%
[5]
  decrease in circulating levels of β-sitosterol: 23%
[5]; 5 h post-treatment, 0.513 g/kg BW
  percentage of variation on β-sitosterol plasma levels T5 vs T0, comparison with control (FIG. 16): decrease in comparison with control (group A)
